According to EP0011828A1, “Pharmaceutical combinations including hydantoin derivatives, pharmaceutical formulations containing the combinations and methods of making the formulations” (THE WELLCOME FOUNDATION LIMITED, priority 1978, dated 1980):
“Also recorded” adds a separate entry of the source.

How the values were obtained:
platelet aggregation = test: Inhibition of platelet aggregation (general statement); type: cell-based
[1] = system: rabbit platelet-rich plasma (PRP); test: Arachidonic acid-induced aggregation in rabbit platelet-rich plasma, Born-type aggregometer; type: cell-based
Description: (§1) Aggregation was induced in rabbit platelet-rich plasma (PRP) by addition of arachidonic acid, and monitored in a Born-type aggregometer. A dose of dipyridamole was selected which caused no inhibition of aggregation when added to the PRP 2 minutes prior to the addition of arachidonic acid. The active compound when added to the PRP 1 minute prior to the addition of arachidonic acid caused a dose-related inhibition of aggregation. The percentage inhibition caused by the active compound was compared in the presence and absence of the selected dose of dipyridamole.

human PRP [2] = test: ADP-induced aggregation of human PRP, potentiation by theophylline; type: cell-based
Description: [The source words this procedure for another species and says it was used here with some conditions changed.] as §1
The experiment of Example 12 was repeated using theophylline, another inhibitor of phosphodiesterase, in place of the dipyridamole. […]

[3] = system: histamine-induced broncho-constriction; settings: cited from earlier work
[4] = system: pentagastrin-induced gastric acid secretion; settings: rat, in vivo; cited from earlier work
[5] = system: aspirin- induced gastric lesions; settings: rats; cited from earlier work
human PRP [6] = test: Platelet aggregation in human PRP, potentiation by dipyridamole; type: cell-based; settings: dipyridamole combined with 5-(6-carboxyhexyl)-1-(3-hydroxy-3-cyclohexylpropyl)hydantoin

O=C(O)CCCC=CCC1C(=O)NC(=O)N1CCC(O)C1CCCCC1 (stereo not shown) [5-(6-carboxyhex-2-enyl)-1-(3-hydroxy-3-cyclohexylpropyl)hydantoin]
inhibitors of platelet aggregation (activity in words) (platelet aggregation): especially active

O=C(O)CCCCCCC1C(=O)NC(=O)N1CCC(O)C1CCCCC1 (stereo not shown) [5-(6-carboxyhexyl)-1-(3-hydroxy-3-cyclohexylpropyl)hydantoin]
inhibition at 0.05 µg/mL ([1]; Oryctolagus cuniculus, active compound 50 ng/ml alone, added 1 minute before arachidonic acid, read-out: Percentage Inhibition): 37%
inhibition at 0.075 µg/mL ([1]; Oryctolagus cuniculus, active compound 75 ng/ml alone, read-out: Percentage Inhibition): 66%
inhibition at 0.1 µg/mL ([1]; Oryctolagus cuniculus, active compound 100 ng/ml alone, read-out: Percentage Inhibition): 100%
Percentage Inhibition ([1]; active compound 50 ng/ml with Dipyridamole 50 µg/ml): 77
inhibition of rabbit platelet aggregation (potency in words) ([1]; rabbit platelets, active compound alone): not a particularly potent inhibiton of rabbit platelet aggregation
inhibition at 0.0005 µg/mL (human PRP [2]; Homo sapiens, active compound 0.5 ng/ml alone, read-out: Percentage Inhibition): 19%
inhibition at 0.001 µg/mL (human PRP [2]; Homo sapiens, active compound 1 ng/ml alone, read-out: Percentage Inhibition): 55%
Percentage Inhibition (human PRP [2]; active compound 0.5 ng/ml with Theophylline 20 µg/ml): 51
Percentage Inhibition (human PRP [2]; active compound 1 ng/ml with Theophylline 20 µg/ml): 70
inhibitors of platelet aggregation (activity in words) (platelet aggregation): especially active

CCCCC(C)(C)C(O)CCN1C(=O)NC(=O)C1CCCCCCC(=O)O (stereo not shown) [5-(6-carboxyhexyl)-1-(3-hydroxy-4,4-dimethyloctyl) hydantoin]
antagonism of histamine-induced broncho-constriction [3]: antagonises histamine-induced broncho-constriction

CCCCCC(=O)CCN1C(=O)NC(=O)C1CCCCCCC(=O)O (stereo not shown) [5-(6-carboxyhexyl)-1-(3-oxo-octyl)hydantoin]
inhibition of pentagastrin-induced gastric acid secretion [4]: inhibits pentagastrin-induced gastric acid secretion
formation of aspirin-induced gastric lesions [5]: reduces the formation of aspirin- induced gastric lesions in rats

O=C(O)CCCCCCC1C(=O)NC(=O)N1CCCCOc1ccccc1 (stereo not shown) [5-(6-carboxyhexyl)-1-(4-phenoxybutyl) hydantoin]
inhibition of pentagastrin-induced gastric acid secretion [4]: inhibits pentagastrin-induced gastric acid secretion
formation of aspirin-induced gastric lesions [5]: reduces the formation of aspirin- induced gastric lesions in rats

CCCCCC(=O)CCN1C(=O)N(C)C(=O)C1CCCCCCC(=O)O (stereo not shown) [5-(6-carboxyhexyl)-3-methyl-1-(3-oxo-octyl)hydantoin]
inhibition of pentagastrin-induced gastric acid secretion [4]: inhibits pentagastrin-induced gastric acid secretion
formation of aspirin-induced gastric lesions [5]: reduces the formation of aspirin- induced gastric lesions in rats

CCCCCC(O)CCN1C(=O)NC(=O)C1CCCCCCC(=O)O (stereo not shown) [5-(6-carlJoxy-hexyl)-1-(3-hydroxyoctyl)-hydantoin]
inhibition of pentagastrin-induced gastric acid secretion [4]: inhibits pentagastrin-induced gastric acid secretion
formation of aspirin-induced gastric lesions [5]: reduces the formation of aspirin- induced gastric lesions in rats

OCCN(CCO)c1nc(N2CCCCC2)c2nc(N(CCO)CCO)nc(N3CCCCC3)c2n1 [Dipyridamole, 2,2', 2",2'"-(4,8-dipiperidinopy-rimido [5,4-d]pyrimidine-2,6-diyldinitrilo)tetraethanol, reference compound]
inhibition at 50 µg/mL ([1]; Oryctolagus cuniculus, Dipyridamole 50 µg/ml alone, added 2 minutes before arachidonic acid, read-out: Percentage Inhibition): 0%
potentiation of the inhibitory activity of the active compound on platelet aggregation ([1]; dipyridamole combined with 5-(6-carboxyhexyl)-1-(3-hydroxy-3-cyclohexylpropyl)hydantoin, rabbit PRP): inhibitory effect of a dose of the active compound in the presence of dipyridamole is approximately equivalent to that caused by twice that dose of the active compound alone; also recorded: produced a potentiation of the anti-aggrcgatory effect of the active compound
potentiation of the anti-aggregatory effect of the active compound (human PRP [6]): a similar potentiation was observed; also recorded: produced a potentiation of the anti-aggrcgatory effect of the active compound

Cn1c(=O)c2[nH]cnc2n(C)c1=O [Theophylline, 3,7-dihydro-1,3-dimethyl-1H-purine-2,6-dione, reference compound]
inhibition at 20 µg/mL (human PRP [2]; Homo sapiens, Theophylline 20 µg/ml alone, read-out: Percentage Inhibition): 7%
potentiation of the inhibitory effect of the active compound on ADP - induced aggregation (human PRP [2]; theophylline combined with 5-(6-carboxyhexyl)-1-(3-hydroxy-3-cyclohexylpropyl)hydantoin, human PRP): found to potentiate the inhibitory effect
